Experimental findings from article PMC7369637, “Inhibition of Resistance-Refractory P. falciparum Kinase PKG Delivers Prophylactic, Blood Stage, and Transmission-Blocking Antiplasmodial Activity” (Cell Chemical Biology, 2020) are described below.

In one experiment the test system is Pf NF54 male gametes. As to the kind of experiment: Dual gamete formation assay, male gamete exflagellation. It counts as cell-based. The settings on record: Plasmodium falciparum. On the procedure: Pf NF54 gametocytes were generated as reported elsewhere ([Delves et al., 2016]). Briefly, static cultures of unsynchronized asexual parasites were continuously maintained as above. Parasites were cultured at 1% ring-stage parasitemias and 4% (v/v) hematocrit prior to the induction of gametocytes. To prepare gametocytes, 75% of the media was replaced daily for 14 subsequent days without adding fresh RBCs. During this process the temperature was kept strictly constant, as the rate of exflagellation is highly temperature-dependent. Between days 1 and 4 after culture induction, the asexual parasitemias increased rapidly to a peak. By day 7, as the asexual population waned, early-stage gametocytes became observable. By day 8, gametocyte maturation had progressed, and by day 14 morphologically distinguishable, mature stage V male and female gametocytes were present. […] Control reactions contained DMSO or 20 μM methylene blue (as negative and positive controls, respectively). […] After imaging, the plate was incubated at 18°C for a further 24 h to allow female gametes to maximally express Pfs25, followed by fluorescence microscopy imaging using a 10× objective. Both time lapse images of exflagellation and fluorescence images of female gametes were automatically quantified using custom scripts in ICY BioImage Analysis ([Delves et al., 2016]).

For experiment [1], the system named is ed. Dd2-B2 TKL3I1250M+T1268R. As to the kind of experiment: 72-h ABS assay, CRISPR/Cas9-edited double-mutant line. To be noted: Plasmodium falciparum, parent Dd2-B2 wild-type. It counts as cell-based. The text has this: Supplement mmc2.xlsx, sheet "Table S1 (I)" | column: Mean IC50
The subject of the next experiment is ed. Dd2-B2 TKL3KO. As to the kind of experiment: 72-h ABS assay, TKL3 knockout line. The settings on record: Plasmodium falciparum, parent Dd2-B2 wild-type. It counts as cell-based. On the procedure: Synchronicity was achieved using three rounds of sorbitol treatment on early rings, spaced 48 h apart, followed by magnetic purification of segmented schizonts following the final sorbitol treatment. Parasites were highly synchronous to within a 3 h window of development. Assays were repeated on at least three independent occasions (each with technical duplicates) and statistical significance was assessed using Mann Whitney U tests.
(§1) The resulting MMV030084-resistant parasites were cloned by limiting dilution ([Baker et al., 2017]) to obtain genetically homogenous cultures for further phenotyping and whole-genome sequencing. A second round of […]. […] Drug susceptibility of resistant lines was assessed using a 72 h ABS assay as described above, and a Mann Whitney U test was applied to assess statistically significant differences.
A CRISPR/Cas9 targeted gene editing strategy using an all-in-one plasmid approach was applied to introduce T1268R, I1250M and T1268R+I1250M in wild-type Dd2-B2 parasites or to produce a TKL3 KO line by inserting a stop codon and frameshift at amino acid position 1268. […] WR99210 (2.5 nM) was added to the culture medium 24 h after electroporation to select for successfully transfected parasites and was maintained in the medium until edited parasites were detected. […]

The test system of experiment [2] is recombinant TKL3 kinase domain. Nature of the experiment: Radioactive in vitro kinase assay with recombinant TKL3 kinase domain. It counts as biochemical, Plasmodium falciparum. The settings on record: 20 μM compound. On the procedure: Recombinant proteins were expressed in E. coli as previously described ([Abdi et al., 2010]). […] The cultures were then cooled to 20°C followed by induction of protein expression with 0.5 mM IPTG and further incubation at 20°C, 200 rpm for 16 h. Cultures were harvested by centrifugation at 4000g, 4°C for 10 min. Bacterial pellets were washed once in 1× PBS and were stored at −80°C. Cell pellets were resuspended in ice-cold Lysis Buffer (50 mM sodium phosphate, pH 8.0, 400 mM NaCl, 5 % (w/v) glycerol, 0.1 % (v/v) Triton X-100, 20 mM imidazole, 2 mM β-mercaptoethanol, 1× Roche protease inhibitor cocktail EDTA-free, 1 mg/ml lysozyme). Cells were disrupted by sonication. Protein was bound on a HisTrap HP column and eluted with a linear gradient of increasing imidazole concentrations. The peak fractions as determined by A280 trace were pooled together and further purified by size exclusion chromatography on a S200 gel filtration column equilibrated in 25 mM Tris pH 7.5, 100 mM NaCl, 5 % (w/v) glycerol, 1 mM DTT. Protein was pooled and concentrated. Final concentration was determined using a Bradford assay with a BSA protein standard.
Kinase assays containing 3 μg of recombinant kinase (WT or mutant) were performed in kinase assay buffer (25 mM Hepes, pH 7.5, 2 mM MnCl2, 10 mM β-glycerophosphate, 10 mM NaF, 25 μM ATP (containing 5 μCi [γ-^32P]-ATP-3000 mCi/mmol (PerkinElmer)), 5 μg substrate myelin basic protein (MBP) and ± 20 μM inhibitor) in a final reaction volume of 20 μl and incubated at 30°C for 30 min. Reactions were stopped by the addition of 5× Laemmli sample buffer and heated to 98°C for 5 min. Proteins were resolved by 4-12 % SDS-PAGE and stained in Coomassie Brilliant Blue. Kinase activity was detected by phosphorimaging. Imaging was performed on a Typhoon 5 Biomolecular imager (GE Healthcare Life Sciences).

Experiment [3] has as its system Dd2-B2 and ed. Dd2-B2 TKL3KO parasites. Nature of the experiment: In vitro selections for MMV030084 resistance. It counts as cell-based, Plasmodium falciparum. To be noted: 1 × 10^9 Dd2-B2 TKL3KO parasites, 1,100 nM. On the procedure:
as §1

pIC50: −log10 of the molar value. Where two headings read alike, the source gives them in different places. Bounds are passed on as bounds.

One may read the pIC50 as the IC50 on a negative log10 scale, so that one unit is a factor of ten. On to `CC(C)(CN)c1nc(-c2ccc(Cl)c(O)c2)c(-c2ccncc2)[nH]1` [MMV030084], for which the pIC50 in the experiment on Pf NF54 male gametes (carry-over: gametogenesis induced in the presence of compound, read-out: IC50, male gamete exflagellation) is 6.85; in the experiment on Pf NF54 male gametes (compound washed out before gamete formation, read-out: IC50, male gamete formation, wash-out), below 5.00; in experiment [1], 6.46; in the experiment on ed. Dd2-B2 TKL3KO it was 6.42. In experiment [2], the “Reduction in TKL3 kinase activity” value was “no reduction”. For the same molecule, the “Parasite recrudescence under continuous exposure” value in experiment [3] is listed as “did not result in parasite recrudescence”.
